Source: a melting point compilation (Tetko et al.; mined from patent text by program, amines drawn as free bases though some values may be those of a salt)

`COc1cc(OC)nc(NC(=O)NS(=O)(=O)c2ccccc2C(CF)OC(C)=O)n1` (centres undefined) showed a melting point of 176 to 178 °C.
In the case of `O=C(Nc1ccc(O)c(C(=O)O)c1)c1ccc([N+](=O)[O-])cc1`, the melting point is reported as 270 to 271 °C.
In the case of `C#CC[C@H](c1nc2cc(Cl)ccc2c(=O)n1Nc1ccccc1)N(CCCNC(=O)OCc1ccccc1)C(=O)c1cccc(Cl)c1F`, the melting point is reported as 103 to 105 °C.
Work on `CCCCCCCCCCCCCCOc1cc(C(=O)Cl)ccc1OC` yielded a melting point of 60 to 61 °C.
For `CCCCCN1C(=O)C2CC(c3ccc(N)cc3)(C2)C1=O`, the melting point was 92 to 94 °C.
`Cc1nc(N2CCC(c3ccc(F)cc3)CC2)c([N+](=O)[O-])c(=O)n1CCCCO` gave a melting point of 154 to 156 °C.
Molecule `CC(=O)N(Cc1nc(-c2ccccc2)c(-c2ccccc2)o1)c1cccc(OCC(=O)O)c1` has a melting point of 75 to 80 °C.
With `COc1ccc(C(=O)Nc2ccccc2)cc1NS(=O)(=O)c1cccc(Cl)c1` the melting point was 197 to 199 °C.
For `CN(C)CCNc1ccc(Cl)nn1`, the melting point was 86 to 92 °C.
In the case of `COC(=O)CC[C@H](NC(=O)CCC#Cc1cnc2nc(NC(=O)C(C)(C)C)nc(O)c2c1)C(=O)OC`, the melting point is reported as 162 to 163 °C.
`CC(C)(C)OC(=O)N1CCC(C#N)(c2ccccc2Cl)CC1` gave a melting point of 165 to 166 °C.
With `CCCN1CCC=C(c2csc(NC(C)=O)n2)C1` the melting point was 109 to 112 °C.
For `CCCCCCC1CC(Cn2cncn2)(c2ccccc2)N(C)O1` (centres undefined), the melting point was 93 to 99 °C.
`Cc1c(NC(=O)c2ccc(CC(=O)C3CCCO3)cc2)ccc2cc(CN3CCCC3)cnc12` (centres undefined) showed a melting point of 102 °C.
`COc1ccc(SCCCCSc2ccc(OC)cc2)cc1` gave a melting point of 102 to 103 °C.
For `CCOC(=O)N1CCN(C2=Nc3ccccc3Cc3nccn32)CC1`, the melting point was 137 to 139 °C.
`C#CC(C)OS(=O)(=O)c1ccc(C)cc1` (centres undefined) showed a melting point of 49 to 51 °C.
In the case of `C#CCNC1(c2ccccc2)c2ccccc2Oc2ccccc21`, the melting point is reported as 116 to 118 °C.
With `O=C(NC(=O)c1c(F)cccc1F)Nc1cc(Cl)c(OCC(F)(F)F)cc1F` the melting point was 201 to 202 °C.
For `Cc1ccccc1CCc1nc2cc(Cl)c(S(N)(=O)=O)cc2[nH]1`, the melting point was 205 to 208 °C.
`CCC(CC)OC(=O)N1CCC(c2nc3cc(-c4ccc(-n5cnnn5)cc4F)ccc3o2)CC1` showed a melting point of 114 to 117 °C.
Work on `Cc1ccccc1-c1cc(-c2ccc(F)cc2)c(C=C(Br)Br)c(C(C)C)n1` yielded a melting point of 108 to 110 °C.
`C=CCc1c(O)ccc2ncccc12` showed a melting point of 162 to 164 °C.
Work on `CN(C)C1(c2ccccc2)CCC(=CC(=O)NCCCc2ccccc2)CC1` (centres undefined) yielded a melting point of 140 to 142 °C.
`CSc1ncc(Cc2ccc(C)nc2)c(=O)[nH]1` gave a melting point of 197 to 198 °C.
Work on `CC(C)n1cc(-c2nc(C(N)=O)c(N)nc2-c2ccc(Cl)cc2)ccc1=O` yielded a melting point of 246 °C.
For `CC(O)c1ccc(Nc2nccc(-c3cccnc3)n2)cc1` (centres undefined), the melting point was 145 to 147 °C.
`COc1cc(Cl)ccc1C(=O)NC1COCCn2c1nc(-c1ccncn1)cc2=O` (racemic) gave a melting point of 274 to 276 °C.
With `CCCSc1sc(C(N)=O)c2c1-c1c(cnn1C)CC2` the melting point was 112 to 113 °C.
Molecule `CCCCCC(NS(=O)(=O)c1ccc(Cl)cc1)c1ccc(CCCC(=O)O)cc1` (single isomer, unassigned; (-)) has a melting point of 134 to 137 °C.
For `CC(C)(C)OC(=O)N[C@H]1CCC(=O)C1`, the melting point was 97 to 98 °C.
For `CS(=O)(=O)c1ncc2c(n1)N(c1ccccc1)C(=O)N(c1ccccc1Cl)C2`, the melting point was 186 °C.
`CC(C)c1ccc(N(Cc2ccc(N(C)C)cc2)C(=O)Nc2c(C(C)C)cccc2C(C)C)cc1` gave a melting point of 203 to 206 °C.
Molecule `CCCc1nc2ccc(Cl)nc2c(=O)[nH]1` has a melting point of 264 to 266 °C.
`COc1cccc(C23CCCC=C2C(=O)N(CCc2ccc(C)cc2)C(=O)C3)c1` (centres undefined) showed a melting point of 134 to 140 °C.
In the case of `O=C(c1ccccc1)C1CCN(Sc2ccncc2)CC1`, the melting point is reported as 123 to 124 °C.
Work on `COc1ccc([N+](=O)[O-])c(C=O)c1OC` yielded a melting point of 106 to 108 °C.
Molecule `Nc1ncnc2c1c(-c1ccccc1)cn2-c1cccc(OCCCl)c1` has a melting point of 166 to 168 °C.
Molecule `Nc1ccc(N2CCN(Cc3ncc(-c4ccccc4)o3)CC2)cc1` has a melting point of 130 °C.
`CCCc1c(OCCCCCC(=O)c2cc(OC)c(OC)cc2F)ccc(C(=O)OC)c1O` showed a melting point of 127 to 129 °C.
`O=C(O)CC(NC(=O)OCC1c2ccccc2-c2ccccc21)C(F)(F)F` (centres undefined) showed a melting point of 187 to 189 °C.
`Fc1c(Cl)cc(C(/C=C/c2ccc3[nH]ccc3c2)C(F)(F)F)cc1Cl` (centres undefined) gave a melting point of 133 to 139 °C.
With `CCOP(=S)(OCC)Oc1nsc(C)c1C(N)=O` the melting point was 68 °C.
For `Cn1c(C(O)CO)cnc1[N+](=O)[O-]` (centres undefined), the melting point was 119 to 121 °C.
Molecule `O=C(O)c1ccc(COCc2csc3nc(C(=O)NCc4cccc(F)c4)[nH]c(=O)c23)cc1` has a melting point of 256 to 280 °C.
For `Cc1nc2sc(S(N)(=O)=O)cc2c(=O)n1-c1ccccc1Cl`, the melting point was 251 °C.
With `COc1cc2nc(N3CCN(C(=O)C=Cc4ccc(Br)cc4)CC3)nc(N)c2cc1OC` the melting point was 266 to 268 °C.
With `Cc1ccccc1Cc1c(C)c(NC(=O)CC(C)(C)C)c(C)c2c1OC(C)(C)C2` the melting point was 175 to 176 °C.
Molecule `COC(=O)c1ccc(CNS(C)(=O)=O)cc1S(=O)(=O)Cl` has a melting point of 93 to 94 °C.
With `CCC(c1cccs1)c1c(O)c2c(oc1=O)CCCCCC2` (centres undefined) the melting point was 163 to 165 °C.
`O=C(O)CCCCCCC1C(=O)CC(=O)C1=O` (centres undefined) showed a melting point of 102 to 104 °C.
Work on `Cc1sc2c(c1C)C(c1ccc(Cl)cc1)=NC(CC(=O)N1CCOCC1)c1nnc(C)n1-2` (centres undefined) yielded a melting point of 252 to 254 °C.
Work on `Cc1sc(-c2ccccc2)nc1COc1ccc(CCl)cn1` yielded a melting point of 78 to 79 °C.
With `CC(Nc1ncnc2[nH]cnc12)c1oc2cccc(F)c2c(=O)c1-c1cccc(F)c1` (centres undefined) the melting point was 195 to 198 °C.
`CC[C@H]1[C@@H](O)CC(=O)N1c1ccc(C#N)c(Cl)c1F` showed a melting point of 142 to 144 °C.
For `CC(NC(=O)OC(C)(C)C)c1ccc(NS(C)(=O)=O)c(C#Cc2ccccc2)c1` (centres undefined), the melting point was 157 to 158 °C.
Molecule `CCc1nc(/C=C/c2cn(-c3ccccc3)nc2O)c(C)s1` has a melting point of 184 to 186 °C.
`O=C(Cc1ccc(O)c2[nH]ncc12)NCc1ccccc1` gave a melting point of 188 to 190 °C.
With `CCN1c2ncc(Br)cc2C(=O)N(C)c2ccc(F)nc21` the melting point was 154 to 156 °C.
`CCCCCS(=O)(=O)c1cccc(-c2nc(=O)c3ccccc3s2)n1` showed a melting point of 160 to 161 °C.
In the case of `CC(C)(Cn1c(CO)nc2c(N)nc3ccccc3c21)C(N)=O`, the melting point is reported as 201 to 203 °C.
`CNn1cc(C(=O)O)c(=O)c2cc(F)c(Cl)cc21` showed a melting point of 275 to 279 °C.
`O=C(C1CCC1)N1CCC2(CC1)Cc1ccccc1O2` showed a melting point of 91 to 93 °C.
`CC(C)CCS(=O)C1=C(O)CC(C)(C)CC1=O` (centres undefined) gave a melting point of 64.5 to 66 °C.
With `CC(=O)N(C)c1cccc(-c2ccnc3c(C(=O)c4cccs4)cnn23)c1` the melting point was 190 to 192 °C.
With `COc1ccc(S(=O)(=O)c2cccs2)c(Cl)c1Cl` the melting point was 190 °C.
`COc1cccc([C@H]2O[C@H](CC(=O)Nc3ccc4[nH]c(C(=O)O)cc4c3)C(=O)N(CC(C)(C)CO)c3ccc(Cl)cc32)c1OC` gave a melting point of 200 to 201 °C.
In the case of `CCCC(=O)c1cnc2ccccc2c1Nc1ccccc1C`, the melting point is reported as 107 to 109 °C.
In the case of `CCOc1ccc(S(=O)(=O)N(CC(=O)NN=C2C(=O)Nc3ccccc32)c2ccc(C)cc2)cc1`, the melting point is reported as 130 to 131 °C.
`COc1cccc([C@H]2O[C@H](CC(=O)Nc3cc(OC(C)C)c4oc(C(=O)O)cc4c3)C(=O)N(CC(C)(C)CO)c3ccc(Cl)cc32)c1OC` showed a melting point of 189 to 190 °C.
In the case of `COc1cc(OC)c2cc(-c3ccc(C#N)cc3)oc2c1`, the melting point is reported as 220 to 221 °C.
Molecule `CC(=O)Nc1nc2c(Oc3cc(-c4ccc(C(F)(F)F)cc4NC(=O)[C@@H]4CCN4CC(C)C)ncn3)cccc2s1` has a melting point of 174 to 175 °C.
For `CSc1c(C(N)=S)nn(-c2c(Cl)cc(C(F)(F)F)cc2Cl)c1N`, the melting point was 161 °C.
In the case of `Clc1ccnc(Nc2ccccc2)n1`, the melting point is reported as 134 to 135 °C.
In the case of `Cn1ncc(C(=O)O)c1C(=O)Nc1ccn2nc(-c3ccnc(F)c3)nc2c1`, the melting point is reported as > 290 °C.
Work on `N#CCc1c[nH]c2cccc(Cl)c12` yielded a melting point of 134 to 136 °C.
Work on `COC(=O)C1CC1c1ccc(OCc2cccc(Oc3ccccc3)c2)cc1` (centres undefined) yielded a melting point of 55 to 56 °C.
Work on `CCOC(=O)CCCC(=O)c1ccc(F)cc1` yielded a melting point of 46 to 47 °C.
`COCCOc1ccc(CCCOc2cc(CCC(=O)O)n(C)n2)c(OCc2ccc(Cl)cc2Cl)c1` showed a melting point of 128 to 130 °C.
Work on `Cc1nc(N2CCN(Cc3ccccc3)C2=N)sc1C(=O)NCc1ccc(F)cc1` yielded a melting point of 142 to 144 °C.
`COc1cc2c(cc1Nc1ncc(Cl)c(N[C@@H]3CCCC[C@H]3NS(C)(=O)=O)n1)N(C)CCN(C[C@@H](O)C(F)(F)F)C2` showed a melting point of 63 to 66 °C.
Molecule `CCOCCNC(=O)Oc1cccc(NC(=O)C=C(C)OC)c1` has a melting point of 133 to 134 °C.
Work on `COC(=O)C1CCNC(=O)C1=O` (centres undefined) yielded a melting point of 151 to 153 °C.
For `N#CC(C(=O)c1ccc(Cl)cc1)=C1CCCN1Cc1ccc(Cl)nc1`, the melting point was 142 to 144 °C.
Work on `CCCOc1cc(OCCC)c2c(=O)c(OCCC)c(-c3ccccc3)oc2c1` yielded a melting point of 90 to 93 °C.
In the case of `CC(SC(=O)c1ccccc1)C(=O)NCCC(=O)O` (centres undefined), the melting point is reported as 94 to 97 °C.
For `CCn1c(=O)c2c(nc(/C=C/c3ccc(OS(=O)(=O)C(F)(F)F)c(OC)c3)n2C)n(CC)c1=O`, the melting point was 250 to 251 °C.
`COC(=O)c1cnn(-c2ccc(Cl)cc2Cl)c1N` showed a melting point of 143 to 145 °C.
`O=C(c1ccccc1)c1cc(-c2ccncc2)c(N2CCOCC2)s1` gave a melting point of 122 °C.
With `COc1cc(OC)c2c(=O)nc(-c3cc(C)c(O)c(C)c3)n(C)c2c1` the melting point was 188 to 189 °C.
For `O=S(=O)(Nc1cc(Cl)sc1Cl)c1cc(-c2ncc(C(F)(F)F)cc2Cl)ccc1Cl`, the melting point was 106 to 108 °C.
For `O=C(Nc1cccc(C(F)(F)F)c1)C(F)(F)F`, the melting point was 69 °C.
For `CCc1nc2c(cnn2CC)c(NC2CCOCC2)c1CNC(=O)c1cccc(C(=O)NCc2ccc(F)c(-c3cccc(CN4CCCCC4)c3)c2)c1`, the melting point was 128 to 131 °C.
With `COc1cccc(Oc2ccc(C(=O)O)cc2C(=O)O)c1` the melting point was 232 to 234 °C.
In the case of `CS(=O)(=O)NCCn1c2ccccc2c(=O)c2ccccc21`, the melting point is reported as 226 to 227 °C.
`COc1cc(Nc2c(C#N)cnc3cc(/C=C/CCN4CCOCC4)c(OC)cc23)c(Cl)cc1Cl` showed a melting point of 141 to 143 °C.
Molecule `CCOC(=O)Cc1sc(SCc2cc(O)nc(O)n2)nc1C` has a melting point of 203 to 204 °C.
With `O=C(O)Cc1cc(C=Cc2ccc(C(=O)O)cc2)ccc1O` the melting point was > 260 °C.
`Cc1ccc(C(Cl)=C(Cl)Cl)cn1` showed a melting point of 37 to 39 °C.
